Data on one compound can be found in patent US20250368629A1, “FLAVONOID COMPOUNDS AND METHODS AND MATERIALS FOR USING FLAVONOID COMPOUNDS TO TREAT FIBROTIC CONDITIONS” (Mayo Foundation for Medical Education and Research, priority 2022, published 2025).

A short description of one data set: in vitro. Type of data set: in vitro ADME. The note with it: rat. As for the experimental part: Plasma protein binding assays were also performed (Table 2). Compounds were incubated with rat plasma for 4 hours. The percent of F-4N recovered was analyzed by LC-MS. Warfarin was used as a control for a compound with high plasma protein binding. Analysis performed by Cyprotex (Framingham, MA).

Data set [1] is described as follows: Microsomal stability, mouse liver derived microsomes. Type of data set: in vitro ADME. As for the experimental part:
The microsomal stability of F-4N was also assessed (FIG. 28). Compounds were incubated with human or mouse liver derived microsomes. The percent of F-4N recovered was analyzed by LC-MS. Verapamil was used as a control for a rapidly degraded compound. Analysis was performed by Cyprotex (Framingham, MA).

A further data set addresses T1, DRAK1 (Homo sapiens, UniProt Q9UEE5).
T1 construct: purchased Reaction Biology
T1 sequence (Q9UEE5 1-414): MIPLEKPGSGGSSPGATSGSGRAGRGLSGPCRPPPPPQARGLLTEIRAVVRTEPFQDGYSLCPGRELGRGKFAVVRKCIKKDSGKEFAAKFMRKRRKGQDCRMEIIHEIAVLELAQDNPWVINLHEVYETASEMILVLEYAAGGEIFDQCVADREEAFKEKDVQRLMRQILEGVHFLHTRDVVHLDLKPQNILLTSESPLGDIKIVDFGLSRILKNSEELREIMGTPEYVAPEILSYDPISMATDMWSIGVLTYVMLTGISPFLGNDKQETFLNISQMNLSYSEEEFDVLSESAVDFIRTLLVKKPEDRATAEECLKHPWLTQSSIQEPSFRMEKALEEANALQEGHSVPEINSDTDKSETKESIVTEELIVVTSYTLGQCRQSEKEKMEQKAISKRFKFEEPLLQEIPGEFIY
The data set can be described thus: DRAK1 kinase activity assay (radiolabeled ATP, Reaction Biology). To be noted: FIG. 30. Type of data set: biochemical. As for the experimental part: DRAK1 kinase activity was also assessed. […] A DRAK1 kinase activity was performed by Reaction Biology. DRAK1 kinase activity was measured and plotted (FIG. 30).

A short description of data set [2]: Levels of unbound compound in plasma and liver of mice (LC-MS). Type of data set: in vivo, mouse. To be noted: 2 hours and 8 hours after the final dose, oral gavage 7 days. The protocol: Levels of F-4N in the plasma and liver of mice following F-4N exposure were examined (FIG. 26). Plasma and liver tissue was collected 2 hours and 8 hours after the final dose from the mice subjected to the protocol described in FIG. 24A. Levels of unbound (free) F-4N were analyzed by Cyprotex (Framingham, MA) using LC-MS.

The test system of data set [3] is senescent human adult lung fibroblasts. Description: Apoptosis of senescent lung fibroblasts (cleaved caspase-3, DAPI). To be noted: Fibroblast; replicatively senescent human adult lung fibroblasts, 96 hours, 6-point dose-response, N=3. Type of data set: cell-based. As for the experimental part:
(§1) Human adult lung fibroblasts were replicatively passaged until senescence (confirmed by RNA and senescence associated beta galactosidase staining). In a parallel experiment, low passage proliferating fibroblasts from the same donor were compared. Cells were plated into 96-well plates and treated with the indicated compound (6-point dose-response) and incubated for 96 hours. Cells were then fixed using 4% PFA, permeabilized using 0.25% triton x-100, and nuclear stained using a primary antibody for cleaved caspase-3, secondary fluorescence conjugated antibody, and DAPI. Cells were then imaged using a 4× objective on a Cytation5 microscope and cell counts were quantified using automated software (Biotek Gen5). Data shown are the EC50 values calculated for each compounds efficacy to induce apoptosis in senescence vs. proliferating lung fibroblasts, from the calculated dose-response curves, N=3 independent experiments.

Data set [4] concerns Human adult lung fibroblasts (passage 3). Description: Fibroblast activation (TGFβ, alpha-smooth muscle actin). Type of data set: cell-based. The note with it: Homo sapiens, Fibroblast; +2 ng/mL TGFβ, 96 hours, alpha-smooth muscle actin intensity. As for the experimental part: Human adult lung fibroblasts (passage 3) were plated into 96-well plates and treated with the indicated compound (6-point dose-response) +2 ng/mL TGFβ to stimulated fibroblast activation. Cells were incubated for 96 hours, fixed using 4% PFA, permeabilized using 0.25% triton x-100, and stained using a primary antibody recognizing alpha-smooth muscle actin and a secondary fluorescent conjugated antibody, and DAPI. Cells were then imaged using a 4× objective on a Cytation5 microscope and alpha-smooth muscle actin intensity was quantified using automated software (Biotek Gen5). Data shown are the IC50 values for each compounds efficacy at reducing expression of alpha-smooth muscle actin, calculated from the calculated dose-response curves, N=3 independent.

Data set [5] has as its system low passage proliferating fibroblasts. The data set can be described thus: Apoptosis of low passage proliferating lung fibroblasts (cleaved caspase-3, DAPI). To be noted: low passage proliferating fibroblasts from the same donor, 96 hours, 6-point dose-response, N=3. Type of data set: cell-based, human. As for the experimental part:
as §1

Another data set concerns the target T2, STK17B (Homo sapiens, UniProt O94768).
T2 construct: purchased Reaction Biology
T2 sequence (O94768 1-372): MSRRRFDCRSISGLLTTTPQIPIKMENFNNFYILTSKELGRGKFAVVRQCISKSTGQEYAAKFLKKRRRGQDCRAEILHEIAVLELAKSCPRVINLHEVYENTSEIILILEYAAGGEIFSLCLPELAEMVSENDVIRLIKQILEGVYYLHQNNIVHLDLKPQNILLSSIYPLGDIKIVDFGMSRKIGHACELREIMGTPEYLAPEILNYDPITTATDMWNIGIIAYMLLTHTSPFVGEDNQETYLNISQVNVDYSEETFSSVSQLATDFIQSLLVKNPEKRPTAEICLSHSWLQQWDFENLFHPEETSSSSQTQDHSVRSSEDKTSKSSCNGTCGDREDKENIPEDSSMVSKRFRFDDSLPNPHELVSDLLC
Description: Kinase dose response curve on STK17B. Type of data set: biochemical. To be noted: FIG. 4A, read-out: half maximal inhibitory concentration (IC50) on STK17B. As for the experimental part:
FIGS. 4A-4B show mechanism of action of F-4N. […] Dose response curves on STK17A and STK17B show half maximal inhibitory concentration (IC50) values of ˜200 nM. […] FIG. 4A. F-4N was sent to Reaction Biology to be tested against their entire wild-type kinase panel. 1 μM F-4N was tested in an ATP competition assay against 420+ kinases. Z-scores were calculated to identify true hits over noise.

`O=c1c(O)c(-c2ccc(OCc3ccncc3)cc2)oc2ccccc12` [F—4N] had a recovery at 4 h, 5 μM in “in vitro” of 100%. Further, the Plasma bound in “in vitro” (4 h, 5 μM) was 99%. For the same compound, in “in vitro” (plasma), the “plasma protein binding (in words)” value is “high”. Further, in the data set “in vitro” (plasma, 4 h, 5 μM), the Plasma unbound was 0.94%. Also, the “microsomal stability: half-life and clearance rate” value in data set [1] is reported as “in line with many clinically approved orally administered drugs”. Further, the DRAK1 kinase activity result at DRAK1 was “can inhibit”. Moreover, the “levels of unbound (free) compound in plasma and liver” value in data set [2] is “higher in liver than plasma”. The EC50 in data set [3] came out at 800 nM; in data set [4] it was 1800 nM. The “Proliferating fibroblast apoptosis EC50” value in data set [5] is “inactive”. The IC50 at STK17B was ~200 nM.

Usually EC50 stands for the concentration at which the effect is half-maximal. Read a low EC50 as a more potent agent.
